Experiments:
TNBS colitis mouse model = assay type: in vivo, mice; conditions: dexamethasone i.p. daily
Method: TNBS colitis model and treatment with CCL2—TNBS colitis was induced as previously described [Ohkawara et al. (2002) Gastroenterology, 123:256]. Briefly, mice were anesthetized by i.p. injection (35 μl per mouse) of a mixture containing 85% ketamine and 15% xylazine (20 mg/ml). Next, 100 μl of TNBS [55% volume of 50% ethanol mixed with 45% volume of TNBS solution ([…]; Sigma-Aldrich)] was infused into the colonic lumen (about 3.5 cm of the anal verge) via 1 ml syringe attached to a feeding needle. Treated mice were weighted daily and visually inspected for clinical symptoms, such as rectal bleeding and diarrhea.
TNBS mice were divided into 6 groups. CCL2 groups (10 mice in each group) were injected i.p. daily with different CCL2 concentrations (30 ng, 60 ng or 180 ng) in 200 μl of PBS from day 0 (immediately after TNBS induction) to day 6. Control groups (10 mice in each group) were injected i.p. daily with 200 μl PBS alone. Additionally, 5 mice were injected i.p. daily with dexamethasone; and 1 mouse which was not treated and served as negative control for future histology and weight.
Macroscopic and histological assessment of colitis—An observer blind to the experimental procedure scored colitis for clinical manifestation of disease. The colon was macroscopically examined (×5 magnification) to evaluate the macroscopic lesions according to the Wallace criteria. The Wallace score ranks macroscopic colon lesions on a scale from 0 to 16 based on criteria reflecting inflammation, such as hyperemia, thickening of the bowel and the extent of ulceration. The colon was cut lengthwise and fixed in 4% paraformaldehyde for future histology.

naïve T cells = experiment: Cytoskeleton rearrangement (actin polymerization), naïve T cells; assay type: cell-based, mice; conditions: CCL21 stimulation in presence of chemokine 0.1 ng/ml; FIG. 2e
Method: Cytoskeleton rearrangement—T cells were pre-incubated for 30 minutes in the presence or absence of CCL2 (0.1 ng/ml), and then stimulated with either CXCL12 (0.1 mg/ml PeproTech, Inc., Rocky Hill N.J.), SLC (CCL21, 0.4 mg/ml, PeproTech, Inc., Rocky Hill, N.J.), Rantes (0.1 mg/ml, R&D systems Minneapolis, Minn.), MIP-1β(0.1 mg/ml, R&D systems Minneapolis, Minn.) or Eotoxin (0.1 mg/ml R&D systems Minneapolis, Minn.) for 15 seconds. Cells were then immediately fixed with paraformaldehyde, permeabilized and their intracellular F-actin was stained with FITC-phalloidin (Sigma-Aldrich, St. Louis, Mo.), and then analyzed by flow cytometry to determine the state of their cytoskeleton, as previously described [Flaishon, L. F., et al., J. Biol. Chem. 276:46701 (2001)].

[1] = test system: human T cells interacting with ICAM-1 (LFA-1); experiment: Laminar flow adhesion assay on ICAM-1 with co-immobilized CCL21; assay type: cell-based; conditions: low dose chemokine pretreatment
Method: (§1) Laminar flow adhesion assays—Purified VCAM-1 or ICAM-1-Fc (both from R&D Systems, Minneapolis, Minn.) were coated with or without CCL21 (R&D Systems) on polystyrene plates as previously described [Grabovsky et al., J Exp Med. (2000) 192:495-506; Sigal et al., J Immunol. (2000) 165:442-452]. The polystyrene plates were each assembled on the lower wall of the flow chamber as previously described [Feigelson et al., J Biol Chem. (2001) 276:13891-13901]. All flow experiments were conducted at 37° C. Cells were washed with cation-free H/H medium, resuspended in binding medium (H/H medium supplemented with 1 mM CaCl2 and 1 mM MgCl2) and perfused through the flow chamber at low shear stress (0.5-0.75 dyn/cm^2) for 2 minutes. Tethers were defined as transient or rolling if cells attached briefly (<2 seconds) to the substrate and as arrests if immediately arrested and remaining stationary for at least 5 seconds of continuous flow. Frequencies of adhesive categories within differently pretreated cells were determined as a percentage of cells flowing immediately over the substrates, as previously described [Grabovsky et al., supra]. To assess resistance to detachment over time, accumulated cells were subjected to a shear stress of 5 dyn/cm^2 for 5 minutes. At the indicated time points, the number of cells that remained bound was expressed relative to T cell population originally accumulated in the first 2 minute period of the assay. Over 90% of cellular tethers to VCAM-1 or ICAM-1 were blocked by pretreating cells with VLA-4 or LFA-1 blockers respectively.

[2] = test system: human T cells interacting with VCAM-1 (VLA-4); experiment: Laminar flow adhesion assay on VCAM-1 with co-immobilized CCL21; assay type: cell-based; conditions: low dose chemokine pretreatment
Method: as §1

## C[C@@H]1C[C@H]2[C@@H]3CCC4=CC(=O)C=C[C@]4(C)[C@@]3(F)[C@@H](O)C[C@]2(C)[C@@]1(O)C(=O)CO [dexamethasone, reference compound]
TNBS colitis mouse model
  Colon length (cm): 8.17 ± 0.76 cm
TNBS colitis mouse model; 3 mice
  Diarrhea (# of mice): 0 # of mice
TNBS colitis mouse model; Wallace score 0 to 16, mean±SEM
  Colitis score: 0.67 ± 0.58

## CXCL12: chemokine, chemoattractant for T cells; tested at low dose as comparator [reference compound]
naïve T cells
  inhibitory effect of low levels of chemokine on actin polymerization of naïve T cells: no inhibitory effect
[1]; high shear stress 5 dyn/cm^2, FIG. 6b
  post arrest adhesion strengthening on ICAM-1 (resistance to detachment): retained
[1]; shear stress 0.5 dyn/cm^2, FIG. 6a
  LFA-1 activation by surface bound CCL21 (arrest on ICAM-1): retained
[2]; high shear stress 5 dyn/cm^2, FIG. 6d
  post arrest adhesion strengthening on VCAM-1 (resistance to detachment): retained
[2]; shear stress 0.75 dyn/cm^2, FIG. 6c
  VLA-4 activation by surface bound CCL21 (arrest on VCAM-1): retained

## Eotoxin: comparator chemokine (R&D systems) [reference compound]
naïve T cells
  inhibitory effect of low levels of chemokine on actin polymerization of naïve T cells: no inhibitory effect

B1: Rantes: comparator chemokine (R&D systems) (protein, UniProt P13501 24-91, looked up)
C-C motif chemokine 5: SPYSSDTTPCCFAYIARPLPRAHIKEYFYTSGKCSNPAVVFVTRKNRQVCANPEKKWVREYINSLEMS
naïve T cells
  inhibitory effect of low levels of chemokine on actin polymerization of naïve T cells: no inhibitory effect

B2: Mip1β: comparator chemokine (R&D systems) (protein, UniProt P13236 24-92, looked up)
C-C motif chemokine 4: APMGSDPPTACCFSYTARKLPRNFVVDYYETSSLCSQPAVVFQTKRSKQVCADPSESWVQEYVYDLELN
naïve T cells
  inhibitory effect of low levels of chemokine on actin polymerization of naïve T cells: no inhibitory effect

Reference: patent US7919077B2, “Pharmaceutical compositions comprising CCL2 and use of same for the treatment of inflammation” (Yeda Research and Development Co. Ltd., priority 2006, dated 2011)
